The record followed here is patent publication US8703812B2, “Protein synthesis required for long-term memory is induced by PKC activation on days preceding associative learning” (Blanchette Rockefeller Neurosciences Institute, priority 2005, dated 2014).

“Also recorded” adds a separate entry of the source.

One assay deals with calexcitin. As to the kind of experiment: Calexcitin immunostaining in B-photoreceptors. The assay is classed as in vivo, Hermissenda. As for the experimental part:
Following experimental treatments and testing, animals were rapidly decapitated, the central nervous systems (CNS) removed and then fixed in 4% para-formaldehyde in 20 mM Tris-buffered (pH 8) natural seawater (NSW; 0.2 μm micropore-filtered). The CNSs were then embedded in polyester wax (20), sectioned (6 μm) and immunostained using a biotinylated secondary antibody coupled to avidin-bound microperoxidase (ABC method, Vector), Aminoethylcarbazole (AEC) was used as the chromogen. The primary polyclonal antibody (designated 25U2) was raised in rabbits from the full length calexcitin protein extracted from squid optic lobes. Gray-scale intensity measures were done from digital photomicrographs on circumscribed cytoplasmic areas of the B-photoreceptors minus the same background area (non-staining neuropile).

Assay [1] has as its system PKC. Put plainly: Protein kinase C assay (histone phosphorylation) in Hermissenda nervous systems. The assay is classed as in vivo. Here is the method: Bryostatin exposure—Specimens of Hermissenda Crassicornis were maintained in artificial sea water (ASW) at 15° for three days in perforated 50-ml conical centrifuge tubes before starting experiments. Bryostatin, purified from the marine bryozoan Bugula neritina, was dissolved in EtOH and diluted to its final concentration in ASW. Animals were incubated with bryostatin in ASW for 4 hr, then rinsed with normal ASW. For selected experiments lactacysteine (10 μM) or anisomycin was added to the ASW.
(§1) Cells were homogenized by sonication (5 sec, 25 W) in 100 μl of 10 mM Tris-HCl pH 7.4 buffer containing 1 mM EGTA, 1 mM PMSF, and 50 mM NaF. Homogenate was transferred to a polyallomer centrifuge tube and was centrifuged at 100,000×g for 10 min at 4°. The supernatant was removed and immediately frozen on dry ice. The particulate fraction was resuspended by sonication in 100 μl of the same buffer and stored at −80°. To measure PKC, 10 μl of cytosol or particulate fraction was incubated for 15 min at 37° in the presence of 10 μM histones, 4.89 mM CaCl2, 1.2 μg/μl phosphatidyl-L-serine, 0.18 μg/μl 1,2-dioctanoyl-sn-glycerol, 10 mM MgCl2, 20 mM HEPES (pH 7.4), 0-8 mM EDTA, 4 mM EGTA, 4% glycerol, 8 μg/ml aprotinin, 8 μg/ml leupeptin, and 2 mM benzamidine. 0.5 μCi [γ^32P]ATP was added and ^32P-phosphoprotein formation was measured by adsorption onto phosphocellulose as described previously (25). This assay was used with slight adjustments for either Hermissenda nervous system homogenates or cultured mammalian neuron homogenates
Intact Hermissenda were exposed for 4 hour intervals to bryostatin (0.28 nM) on successive days under conditions described (“Behavioral Pharmacology”). Histone phosphorylation (See “Methods”) in isolated circumesophageal nervous systems was then measured in the cytosol fraction. […] (FIG. 12, 13). […] After an initial activation (via translocation), this bryostatin effect is most likely due to increased synthesis of PKC, consistent with the increased levels of calexcitin induced by bryostatin, but not directly correlated with repeated bryostatin exposure.

Assay [2] has as its system PKC. Put plainly: Protein kinase C assay in cultured hippocampal neurons. In kind it is cell-based, Rat. As for the experimental part:
as §1
Rat hippocampal H19-7/IGF-IR cells (ATCC) were plated onto poly-L-lysine coated plates and grown at 35° in DMEM/10% FCS for several days until approx. 50% coverage was obtained. The cells were then induced to differentiate into a neuronal phenotype by replacing the medium with 5 ml N2 medium containing 10 ng/ml basic fibroblast growth factor and grown in T-25 flasks at 39° C. (26). Various concentrations of bryostatin (0.01-1.0 nM) were then added in 10 μl aqueous solution. After a specified interval, the medium was removed and the cells were washed with PBS, removed by gentle scraping, and collected by centrifugation at 1000 rpm for 5 min.
To further examine biochemical consequences of repeated exposures to bryostatin, rat hippocampal neurons were studied after they had been immortalized by retroviral transduction of temperature sensitive tsA5CSV40 large T antigen (25). These differentiate to have a neuronal phenotype when induced by basic fibroblast growth factor in N2 medium (26) and express a normal complement of neuronal proteins, including PKC.

[3] abbreviates: single bryostatin 0.28 nM for 30 minutes.

For `CCC/C=C/C=C/C(=O)O[C@H]1/C(=C/C(=O)OC)C[C@H]2C[C@H]([C@@H](C)O)OC(=O)C[C@H](O)C[C@@H]3C[C@H](OC(C)=O)C(C)(C)[C@](O)(C[C@@H]4C/C(=C/C(=O)OC)C[C@H](/C=C/C(C)(C)[C@]1(O)O2)O4)O3` [bryostatin, bryostatin-1], the CE immunostaining result in the assay with calexcitin (24 hours after 1 bryostatin exposure for four hours, no conditioning) is “not elevated”; in the assay on calexcitin (24 hours after 2 bryostatin exposures on two successive days, no conditioning), “greater residual CE immunostaining”; in the assay on calexcitin (bryostatin plus 6 TE) it was “comparable to that observed after 9 TE”; in the assay on calexcitin (three 4 hour bryostatin exposures, 2 TE on subsequent day, 24 hours later), “approached the levels previously observed immediately following 9 TE”. Besides, the “levels of calexcitin in B-photoreceptors” value in the assay on calexcitin (bryostatin alone 4-hr over each of 1, 2, and 3 days, measured 24 hours after each) is “progressively increased the levels of calexcitin”. Further, the calexcitin levels increase result in the assay with calexcitin (paired training (6PTE) with bryostatin 0.25) was “greater than 4.3 ×”. In addition, the “rise in calexcitin (CE) immuno-intensity” value with calexcitin (random training (4RTE) with bryostatin 0.25) turned out to be 2.0. Moreover, the calexcitin level result in the assay on calexcitin (two 4-hr bryostatin exposures (0.25 ng/ml) on successive days, then 2-paired TEs) is “significantly increased calexcitin to levels associated with 9-paired TEs; also recorded: raise calexcitin levels to the amount associated with consolidated long-term memory”. Besides, the “PKC activity, membrane fraction” value in the assay on PKC [1] (24 hours after the second of two bryostatin exposures) was “significantly increased over baseline”. Besides, the “PKC activity, cytosol fraction” value in the assay with PKC [1] (bryostatin 0.28 nM 4 hour on successive days, 10 minutes and 24 hours after second of two exposures) is given as “significantly increased over baseline levels”. Further, the “cytosolic PKC activity” value was “no significant alteration; also recorded: not altered” with PKC [2] (first 4 hours after single bryostatin exposure), “increased above baseline” in the assay with PKC [2] (second bryostatin exposure delayed until 4 hours after the first) and “significant reduction of PKC activity” in the assay on PKC [2] (second bryostatin exposure within 2 hr of the first). Further, the “effect of second exposure on downregulation of membrane-bound PKC” value with PKC [2] (second 30-minute exposure after 2- to 4-hour delay) was “eliminated the significant downregulation; also recorded: significantly attenuates the downregulation”. The “membrane-bound PKC after brief translocation” value in the assay with PKC [2] (setting [3]) is recorded as “prolonged downregulation”. The “translocation of PKC from cytosol to particulate fraction” value in the assay on PKC [2] (setting [3]) was “approx 60%”.
